Assay results published in patent US8551952B2, “Methods for the treatment and prevention of ocular disorders” (Scynexis, Inc., priority 2006, dated 2013).
Like-named read-outs stand apart in the source and are kept apart here.

How the values were obtained:
IL4 = settings: read-out: Approximate IC50 for cytokine production IL4; human T-lymphocytes stimulated with anti-CD3/anti-CD28 beads, 24 hours; average of cultures of two donors
Experimental: (§1) Assays with human cells are used to determine if compounds I) inhibit T-cell activation (using cytokine release as a biomarker), and 2) reduce or prevent cytokine-induced pathologies.
(§2) Compounds were incubated with stimulated human T-lymphocytes in an in vitro system designed to measure cytokine production; cytokine production is indicative of T-cell activation and consequential cytokine-induced damage in vivo. […] Cells were treated in triplicate with compounds or vehicle (DMSO) in cell culture medium for 2 hours at 37 deg C. Cells were then stimulated with 5 μL of anti-CD3/anti-CD28 ExpandBeads (DynaBeads, Invitrogen 111.31) and incubated for 24 hours. Compounds were tested at three concentrations: 0.02, 0.2 and 2 μM. Untreated controls were performed for each cytokine marker. The following cytokines were quantitatively determined using specific ELISA kits, according to manufacturer instructions: IL2 (Eli-pair, Diaclone), IL4 (ImmunoTools 313.300.49), tumor necrosis factor alpha (TNFα, ImmunoTools 313.330.1), and Interferon gamma (IFN-γ) Eli-pair, Diaclone).

[1] = tested on: T-cell proliferation (T-cells isolated from mouse spleens); settings: read-out: IC50 MLR; C57BL/6 responder and irradiated BALB/c stimulator spleen cells, 5 days
Experimental: Murine Mixed Lymphocyte Response (MLR) assay: This assay monitored T-cell proliferation by measurement of tritiated thymidine incorporation into DNA of T-cells isolated from mouse spleens; T-cell proliferation is directly proportional to tritium incorporation into DNA. Pooled spleen cells were prepared from three mice each of two strains: three C57BL/6 and three BALB/c mice. The C57BL/6 mice were used as the Responders (R) and BALB mice were the Stimulators (S) in the MLR. Complete medium consisted of RPMI 1640 supplemented with 25 mM HEPES, 10% heat-inactivated low background fetal bovine serum, 50 μM 2-mercatoethanol, 2 mM L-glutamine, and antibiotics.
The BALB/c spleen cells were gamma irradiated at 3000 Roentgen in a Bevill irradiator and washed once with medium to use as S cells; the stock of S cells was 1.6×10^6/mL in complete medium. The R cells were stocked at 8×10^5/mL in complete medium. Final cell densities were 2×10^5 R and 4×10^5 S per test well in a 96-well microtiter plate. Compounds were diluted from a 10 mM stock solution in DMSO into culture medium; compounds were tested at 10 concentrations between 0.001 and 30 μM (three-fold dilutions).
Background control wells contained 150 μL of medium/0.3% DMSO and 50 μL of R cells (2×10^5/well). All other wells contained 100 μL of medium/0.3% DMSO or compound (also in 0.3% DMSO), 50 μL of R cells (2×10^S/well), and 50 μL of S cells (4×10^5/well). Plates were incubated at 37° C. in 5% CO2 for 5 days, and subsequently pulsed with 1 μCi/well of 3H-thymidine for 6-18 hours. Cells were harvested, and tritium incorporation was measured using a scintillation counter.

IL2 = settings: read-out: Approximate IC50 for cytokine production IL2; human T-lymphocytes stimulated with anti-CD3/anti-CD28 beads, 24 hours; average of cultures of two donors
Experimental: as §1, §2

TNF-α = settings: read-out: Approximate IC50 for cytokine production TNF-α; human T-lymphocytes stimulated with anti-CD3/anti-CD28 beads, 24 hours; average of cultures of two donors
Experimental: as §1, §2

IFN-γ = settings: read-out: Approximate IC50 for cytokine production IFN-γ; human T-lymphocytes stimulated with anti-CD3/anti-CD28 beads, 24 hours; average of cultures of two donors
Experimental: as §1, §2

[2] = tested on: chorio-allantoic membranes (CAM) of fertilized chicken eggs; settings: for Classification: HET-CAM classification of irritation potential; for Total Score: HET-CAM, sum of scores, average across eggs
Experimental: In this test, chorio-allantoic membranes (CAM) of fertilized chicken eggs are exposed to a solution of the test substance in sterile water. During an incubation period of approximately 5 minutes, irritancy is assessed by visual inspection of the CAM blood vessel network for haemorrhage, lysis and/or coagulation. The time of onset or appearance of each of these effects is scored numerically, the scores are summed to give a single numerical value, and an average numerical score across several eggs is obtained.

eyes of rabbits = settings: 0.05% (w/w) in an artificial tear formulation, instillation in right eyes over three days
Experimental: The compounds of the invention were evaluated for tolerability upon instillation in the eyes of rabbits over a three day test period. Rabbits receive five instillations within 20 minutes of fifty microliters of a solution of the test substance in vehicle once on Day 1, twice on Day 2 and four times on Day 3 in the right eyes. Evaluation of ocular irritancy was performed using the Draize scale (Draize et al. J. Pharmacol. Exp. Ther. 1944. 82: 377).

[3] = artificial tear formulation
Experimental: The solubilities of compounds in artificial tear formulations were determined using turbidimetric titration (Schote, et al., 2002. J Pharm Sciences 91(3):856). The different tear formulations are buffered and contain various physiological electrolytes including, sodium, potassium, phosphate, and chloride. The formulations differ primarily in the “active” ingredients that provide lubrication and viscosity.

[4] = HET-CAM score, approximately 5 minutes incubation

Compound | IC50 (IL4) [nM] | IC50 [1] [nM] | IC50 (IL2) [nM] | IC50 (TNF-α) [nM] | IC50 (IFN-γ) [nM] | Classification [2] | Lysis [2, 4] | Total Score [2] | Ocular tolerability (Draize scale) (eyes of rabbits) | Minimum Solubility ([3]; pH 6.2, Polyethylene glycol 400 (1%), Polyvinyl alcohol (1%)) [µM] | Minimum Solubility ([3]; pH 6.7 (adjusted with HCl from 7.4), Dextran 70 (0.1%), Hydroxypropyl methyl-cellulose 2910 (0.3%)) [µM] | Minimum Solubility ([3]; pH 6.8, Carboxymethylcellulose sodium (0.5%)) [µM] | Minimum Solubility ([3]; pH 7.3, Propylene Glycol (0.95%), Glycerin (0.3%)) [µM] | Minimum Solubility ([3]; pH 7.4, Dextran 70 (0.1%), Hydroxypropyl methyl-cellulose 2910 (0.3%)) [µM] | Coagulation [2, 4] | Haemorhage [2, 4]
3-[2-(morpholin-4-yl)ethoxy]cyclosporin [F] | ~200 | 500 | ~20 | ~200 | ~200 | – | – | – | – | – | – | – | – | – | – | –
C/C=C/C[C@@H](C)[C@@H](O)[C@H]1C(=O)N[C@@H](CC)C(=O)N(C)C(OCCN(C)C)C(=O)N(C)[C@@H](CC(C)C)C(=O)N[C@@H](C(C)C)C(=O)N(C)[C@@H](CC(C)C)C(=O)N[C@@H](C)C(=O)N[C@H](C)C(=O)N(C)[C@@H](CC(C)C)C(=O)N(C)[C@@H](CC(C)C)C(=O)N(C)[C@@H](C(C)C)C(=O)N1C (stereo partly shown) [Compound A, 3-[2-(N,N-dimethylamino)ethoxy]cyclosporin] | ~2000 | 200 | – | ~2000 | ~2000 | Slightly irritant | 3.5 | 3.5 | very well tolerated | 151 | 350 | 130 | 117 | 141 | – | –
CC=CCC(C)C(O)C1C(=O)NC(CC)C(=O)N(C)C(OCCN2CCCCC2)C(=O)N(C)C(CC(C)C)C(=O)NC(C(C)C)C(=O)N(C)C(CC(C)C)C(=O)NC(C)C(=O)NC(C)C(=O)N(C)C(CC(C)C)C(=O)N(C)C(CC(C)C)C(=O)N(C)C(C(C)C)C(=O)N1C (stereo not shown) [D, 3-[2-(piperidin-1-yl)ethoxy]cyclosporin] | ~2000 | 200 | ~1000 | ~2000 | ~1000 | Slightly irritant | 3 | 3.0 | – | – | – | – | – | – | 0 | 0
